This is an account of results in patent publication US20240132467A1, “BENZIMIDAZOLE DERIVATIVES FOR TREATING RESPIRATORY DISEASE” (TMEM16A Limited, priority 2020, published 2024).

Each structure is given as a SMILES string.

A word on the EC50: it is the concentration giving half of the maximal effect.

The assay has as its target T1, human TMEM16A (TMEM16Aabc variant) (Homo sapiens, UniProt Q5XXA6, DEL476-501).
T1 sequence (Q5XXA6 with tags, fused parts or gaps isoform Q5XXA6-5 DEL539-564): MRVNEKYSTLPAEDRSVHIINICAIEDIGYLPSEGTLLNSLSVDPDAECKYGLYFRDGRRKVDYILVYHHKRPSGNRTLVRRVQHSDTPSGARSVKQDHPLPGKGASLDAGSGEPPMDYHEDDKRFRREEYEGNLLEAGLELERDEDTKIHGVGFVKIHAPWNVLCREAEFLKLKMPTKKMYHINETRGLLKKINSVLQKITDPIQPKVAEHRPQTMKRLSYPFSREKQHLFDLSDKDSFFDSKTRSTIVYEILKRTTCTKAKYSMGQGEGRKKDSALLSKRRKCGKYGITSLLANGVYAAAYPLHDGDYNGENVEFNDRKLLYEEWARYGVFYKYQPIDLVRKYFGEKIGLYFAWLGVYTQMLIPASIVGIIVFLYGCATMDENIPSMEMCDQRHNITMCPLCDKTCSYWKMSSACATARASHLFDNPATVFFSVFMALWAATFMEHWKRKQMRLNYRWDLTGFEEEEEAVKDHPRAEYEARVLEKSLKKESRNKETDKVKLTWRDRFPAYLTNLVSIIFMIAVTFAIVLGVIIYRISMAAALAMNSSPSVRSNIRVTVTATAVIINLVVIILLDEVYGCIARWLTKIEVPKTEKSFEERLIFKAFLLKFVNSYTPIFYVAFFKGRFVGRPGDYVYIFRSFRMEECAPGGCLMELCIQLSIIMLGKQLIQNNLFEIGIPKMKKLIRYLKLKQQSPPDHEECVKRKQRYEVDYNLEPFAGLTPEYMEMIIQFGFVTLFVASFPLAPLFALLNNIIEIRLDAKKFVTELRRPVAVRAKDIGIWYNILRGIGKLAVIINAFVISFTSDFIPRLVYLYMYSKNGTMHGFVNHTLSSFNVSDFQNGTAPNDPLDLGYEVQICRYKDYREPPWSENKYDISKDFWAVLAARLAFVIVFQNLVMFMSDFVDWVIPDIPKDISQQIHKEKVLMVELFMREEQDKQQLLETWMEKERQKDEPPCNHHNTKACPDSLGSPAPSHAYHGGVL
In words: Automated whole-cell patch clamp (Qpatch) TMEM16A potentiator assay in FRT cells stably expressing human TMEM16A. It counts as cell-based. Particulars: for activation at 3.33 µM: 3.33 μM test compound, percentage increase of baseline TMEM16A current at +70 mV, intracellular calcium at EC20, read-out: % Potentiation @ 3.33 μM Avg; for EC50: cumulative concentration response, 5 min per concentration, whole-cell patch clamp. The method, then: Automated whole-cell patch clamp assay to detect TMEM16A activity in recombinant cells Cell culture and preparation
Fisher rat thyroid (FRT) cells stably expressing human TMEM16A (TMEM16Aabc variant; Dr Luis Galietta, Insituto Giannina, Italy) were cultured in T-75 flasks in Hams F-12 media with Coon's modification (Sigma) supplemented with 10% (v/v) foetal bovine serum, penicillin-streptomycin (10,000 U/mL/10000 μg/mL), G-418 (750μg/mL), L-glutamine (2 mM) and sodium bicarbonate solution (7.5% v/v). At —90% confluence cells were harvested for experiments by detachment with a 2:1 (v/v) mixture of Detachin (BMS Biotechnology) and 0.25% (w/v) trypsin-EDTA. Cells were diluted to a density of 3.5-4.5×10^6 cells/mL with media consisting of CHO-S-SFM II (Sigma), 25 mM HEPES (Sigma) and Soy bean trypsin inhibitor (Sigma).
Whole-Cell Patch Clamp Recording
FRT-TMEM16A cells were whole-cell patch clamped using an automated planar patch clamp system (Qpatch, Sophion). Briefly, once high resistance (GOhm) seals were established between the cells and the planar recording array the patch was ruptured using suction pulses to establish the whole-cell recording configuration of the patch clamp technique. The assay employed the following solutions (all reagents Sigma):
Intracellular solution (mM): N-methyl-D-glucamine 130, CaCl2 18.2, MgCl2 1, HEPES 10, EGTA 10, BAPTA 20, Mg-ATP 2, pH 7.25, 325mOsm with sucrose.
Extracellular solution (mM): N-methyl-D-glucamine 130, CaCl2 2, MgCl2 1, HEPES 10, pH 7.3, 320 mOsm with sucrose.
The intracellular solution buffers intracellular calcium at levels required to give —20% activation of the maximal TMEM16A mediated current (EC20 for calcium ions). Cells were voltage clamped at a holding potential of -70mV and a combined voltage step (to +70 mV)/ramp (−90 my to +90 mV) was applied at 0.05 Hz. After a period of current stabilisation test compounds, solubilised in 100% (v/v) DMSO and subsequently diluted into extracellular solution, were applied to generate a cumulative concentration response curve. Each concentration of test compound was incubated for 5 minutes before addition of the next concentration. After the final concentration was tested a supramaximal concentration of either a known active positive modulator or the TMEM16A inhibitor, CaCCinhA01 (Del La Fuente et al, 2008) was added to define the upper and lower limits of the assay.
Compound activity was quantified by measuring the increase in current upon compound addition and expressing this as a percentage increase of baseline TMEM16A current level. Percentage increases in current were determined for each concentration and the data plotted as a function of concentration using either the Qpatch software or Graphpad Prism v6.05 providing the concentration which gave 50% of its maximal effect (EC50) and maximum efficacy (percentage of baseline increase).
In FIG. 1, IBL equals baseline current, km equals the peak current during test compound concentration 1 incubation period and so on.
Peak TMEM16A current at +70mV was plotted as a function of time over the assay period. Baseline current (IBL) was measured after a period of stabilisation. The increase in current for each compound addition was determined by taking the peak current during the incubation period and subtracting the current from the previous recording period and then expressing this as a percentage of the baseline current. For test compound concentration 1 in FIG. 1 this is:
For each additional concentration tested the increase in current was determined by subtracting the current from the previous incubation period and normalising the baseline value—for test concentration 2 in FIG. 1 this is:
The values for each test concentration were plotted as a cumulative function of concentration e.g. for test concentration two this would be the sum of the peak changes measured during concentration one plus concentration two.

As for `CC(C)(C)c1nc2cc(C(=O)NCc3cc(Cl)ccc3O)ccc2[nH]1` [Example 1.9, 2-tert-Butyl-N-[(5-chloro-2-hydroxy-phenyl)methyl]-1H-benzimidazole-5-carboxamide], the activation at 3.33 µM was determined as 52.1%. For `CC(C)(C)OC(=O)NCc1nc2cc(C(=O)NCC3CCCCCC3)ccc2[nH]1` [Example 1.10, tert-Butyl N-[[5-(cycloheptylmethylcarbamoyl)-1H-benzimidazol-2-yl]methyl] carbamate], the activation at 3.33 µM stood at 110% and the EC50 is 892 nM. As to `CC1(CNC(=O)c2ccc3[nH]c(Cc4ccccc4)nc3c2)CCCCC1` [Example 1.10.1, 2-Benzyl-N-1(1-methylcyclohexyl)methylj-1H-benzimidazole-5-carboxamide], the activation at 3.33 µM came out at 124% and the EC50 stood at 210 nM. Taken in the same sequence, the figures for `O=C(NCC1CCCCCCC1)c1ccc2[nH]c(Cc3ccccc3)nc2c1` [Example 1.10.2, 2-Benzyl-N-(cyclooctylmethyl)-1H-benzimidazole-5-carboxamide] were 76.1% and 192 nM.

Regarding `CC(C)(C)OC(=O)NCC1(CC(=O)Nc2ccc3[nH]c(Cc4ccccc4)nc3c2)CCCCC1` [Example 2.1, tert-Butyl N-[[1-[2-[(2-benzyl-1H-benzimidazol-5-yl)amino]-2-oxo-ethyl]cyclohexyl]methyl]carbamate], the activation at 3.33 µM worked out at 215% and the concentration giving a half-maximal response (EC50) is 860 nM. The matching figures for `O=C(CC1CCC(F)(F)CC1)Nc1ccc2[nH]c(Cc3ccccc3)nc2c1` [Example 2.1.1]: 47.6% and 582 nM.

As for `COCC(NC(=O)OC(C)(C)C)c1nc2cc(NC(=O)CC3C4CC5CC(C4)CC3C5)ccc2[nH]1` (stereo not shown) [Example 2.2, tert-Butyl N-[1-[5-[[2-(2-adamantyl)acetyl]amino]-1H-benzimidazol-2-yl]-2-methoxy-ethyl]carbamate], the activation at 3.33 µM was 197% and the concentration giving a half-maximal response (EC50) worked out at 622 nM. As to `CN(C(=O)OC(C)(C)C)[C@H](c1ccccc1)c1nc2cc(NC(=O)CC3C4CC5CC(C4)CC3C5)ccc2[nH]1` (stereo partly shown) [Example 2.2.1], the activation at 3.33 µM turned out to be 97.7% and the EC50 was 907 nM. On to `CN(C(=O)OC(C)(C)C)[C@@H](c1ccccc1)c1nc2cc(NC(=O)CC3C4CC5CC(C4)CC3C5)ccc2[nH]1` (stereo partly shown) [Example 2.2.2], for which the activation at 3.33 µM was 127% and the concentration for a half-maximal effect (EC50) is 948 nM. Taken in the same sequence, the figures for `CCN(Cc1nc2ccc(NC(=O)CC3C4CC5CC(C4)CC3C5)cc2[nH]1)C(=O)OC(C)(C)C` (stereo not shown) [Example 2.2.3] were 155% and 1040 nM. With `COCCN(Cc1nc2ccc(NC(=O)CC3C4CC5CC(C4)CC3C5)cc2[nH]1)C(=O)OC(C)(C)C` (stereo not shown) [Example 2.2.4], the activation at 3.33 µM was 190% and the 50% effective concentration (EC50) came out at 1080 nM. For `COCCc1nc2ccc(NC(=O)CC3C4CC5CC(C4)CC3C5)cc2[nH]1` (stereo not shown) [Example 2.2.5, 2-(2-Adamantyl)-N[2-(2-methoxyethyl)-3H-benzimidazol-5-yl]acetamide], the activation at 3.33 µM stood at 113% and the EC50 came to 758 nM. The matching figures for `COCCCc1nc2cc(NC(=O)CC3C4CC5CC(C4)CC3C5)ccc2[nH]1` (stereo not shown) [Example 2.2.6, 2-(2-Adamantyl)-N[2-(3-methoxypropyl)-1H-benzimidazol-5-yl]acetamide]: 167% and 780 nM. The matching figures for `CN(Cc1nc2cc(NC(=O)CC3C4CC5CC(C4)CC3C5)ccc2[nH]1)C(=O)OC(C)(C)C` (stereo not shown) [Example 2.3, tert-Butyl N-[[5-[[2-(2-adamanty)acetyl]amino]-1H-benzimidazol-2-yl]methyl]-N-methyl-carbamate]: 201% and 1070 nM. Regarding `O=C(NCC1CCCCCC1)c1ccc2[nH]c(C3COc4ccccc43)nc2c1` (stereo not shown) [Example 2.4, N-(Cycloheptylmethyl)-2-(2,3-dihydrobenzofuran-3-yl)-1H-benzimidazole-5-carboxamide], the activation at 3.33 µM amounted to 133% and the half-maximal effective concentration (EC50) came to 658 nM. For the compound `O=C(CC1C2CC3CC(C2)CC1C3)Nc1ccc2[nH]c(C(O)c3ccccc3)nc2c1` (stereo not shown) [Example 2.5, 2-(2-Adamantyl)-N-12-[hydroxy(phenyl)methyl]-1H-benzimidazol-5-yljacetamide], the activation at 3.33 µM amounted to 58.9% and the EC50 came to 150 nM. For the compound `O=C(CC1CCCCC1)Nc1ccc2[nH]c(-c3ccccc3)nc2c1` [Example 3.1, 2-Cyclohexyl-N-(2-phenyl-1H-benzimidazol-5-yl)acetamide], the activation at 3.33 µM is 74% and the concentration giving a half-maximal response (EC50) stood at 287 nM. With `O=C(Nc1ccc2[nH]c(Cc3ccccc3)nc2c1)C12CC3CC(CC(C3)C1)C2` [Example 3.2, N-(2-Benzyl-1H-benzimidazol-5-yl)adamantane-1-carboxamide], the activation at 3.33 µM stood at 58.5% and the EC50 is 332 nM. Turning to `O=C(NCC1CCCCCC1)c1cc(F)c2[nH]c(Cc3cccc(O)c3)nc2c1` [Example 3.3, N-(Cycloheptylmethyl)-7-fluoro-2-[(3-hydroxyphenyl)methyl]-1H-benzimidazole-5-carboxamide], the activation at 3.33 µM worked out at 114% and the 50% effective concentration (EC50) is 554 nM. The matching figures for `O=C(NCC1CCCCCC1)c1cc2nc(Cc3cccc(O)c3)[nH]c2cc1F` [Example 3.3.1, N-(Cycloheptylmethyl)-6-fluoro-2-[(3-hydroxyphenyl)methyl]-1H-benzimidazole-5-carboxamide]: 95.8% and 471 nM. Consider `O=C(NCC1CCCCCC1)c1ccc2[nH]c(Cc3cccc(O)c3)nc2c1F` [Example 3.3.2, N-(Cycloheptylmethyl)-4-fluoro-2-[(3-hydroxyphenyl)methyl]-1H-benzimidazole-5-carboxamide], for which the activation at 3.33 µM was 90.2% and the half-maximal effective concentration (EC50) was 598 nM. As to `Cc1noc(C)c1Cc1nc2cc(NC(=O)CC3C4CC5CC(C4)CC3C5)ccc2[nH]1` (stereo not shown) [Example 3.4.1], the activation at 3.33 µM amounted to 116% and the concentration giving a half-maximal response (EC50) stood at 576 nM.
